Measurements from US10377753B2, “Substituted 4-azaindoles and their use as GluN2B receptor modulators” (Janssen Pharmaceutica NV, priority 2015, dated 2019).
Where a name gives a salt, the structure may show the parent alone.

What follows are compounds tested against cloned human NR1/NR2B ion channels (Homo sapiens (Human), UniProt Q05586+Q13224) (assay: HNR2BC: effects of test articles on cloned human NR1/NR2B ion channels expressed in mammalian cells (FLIPR calcium flux)). Details: cloned human NR1/NR2B, Table 5.
Sequence of cloned human NR1/NR2B ion channels (Q13224 27-1484, other chains not shown): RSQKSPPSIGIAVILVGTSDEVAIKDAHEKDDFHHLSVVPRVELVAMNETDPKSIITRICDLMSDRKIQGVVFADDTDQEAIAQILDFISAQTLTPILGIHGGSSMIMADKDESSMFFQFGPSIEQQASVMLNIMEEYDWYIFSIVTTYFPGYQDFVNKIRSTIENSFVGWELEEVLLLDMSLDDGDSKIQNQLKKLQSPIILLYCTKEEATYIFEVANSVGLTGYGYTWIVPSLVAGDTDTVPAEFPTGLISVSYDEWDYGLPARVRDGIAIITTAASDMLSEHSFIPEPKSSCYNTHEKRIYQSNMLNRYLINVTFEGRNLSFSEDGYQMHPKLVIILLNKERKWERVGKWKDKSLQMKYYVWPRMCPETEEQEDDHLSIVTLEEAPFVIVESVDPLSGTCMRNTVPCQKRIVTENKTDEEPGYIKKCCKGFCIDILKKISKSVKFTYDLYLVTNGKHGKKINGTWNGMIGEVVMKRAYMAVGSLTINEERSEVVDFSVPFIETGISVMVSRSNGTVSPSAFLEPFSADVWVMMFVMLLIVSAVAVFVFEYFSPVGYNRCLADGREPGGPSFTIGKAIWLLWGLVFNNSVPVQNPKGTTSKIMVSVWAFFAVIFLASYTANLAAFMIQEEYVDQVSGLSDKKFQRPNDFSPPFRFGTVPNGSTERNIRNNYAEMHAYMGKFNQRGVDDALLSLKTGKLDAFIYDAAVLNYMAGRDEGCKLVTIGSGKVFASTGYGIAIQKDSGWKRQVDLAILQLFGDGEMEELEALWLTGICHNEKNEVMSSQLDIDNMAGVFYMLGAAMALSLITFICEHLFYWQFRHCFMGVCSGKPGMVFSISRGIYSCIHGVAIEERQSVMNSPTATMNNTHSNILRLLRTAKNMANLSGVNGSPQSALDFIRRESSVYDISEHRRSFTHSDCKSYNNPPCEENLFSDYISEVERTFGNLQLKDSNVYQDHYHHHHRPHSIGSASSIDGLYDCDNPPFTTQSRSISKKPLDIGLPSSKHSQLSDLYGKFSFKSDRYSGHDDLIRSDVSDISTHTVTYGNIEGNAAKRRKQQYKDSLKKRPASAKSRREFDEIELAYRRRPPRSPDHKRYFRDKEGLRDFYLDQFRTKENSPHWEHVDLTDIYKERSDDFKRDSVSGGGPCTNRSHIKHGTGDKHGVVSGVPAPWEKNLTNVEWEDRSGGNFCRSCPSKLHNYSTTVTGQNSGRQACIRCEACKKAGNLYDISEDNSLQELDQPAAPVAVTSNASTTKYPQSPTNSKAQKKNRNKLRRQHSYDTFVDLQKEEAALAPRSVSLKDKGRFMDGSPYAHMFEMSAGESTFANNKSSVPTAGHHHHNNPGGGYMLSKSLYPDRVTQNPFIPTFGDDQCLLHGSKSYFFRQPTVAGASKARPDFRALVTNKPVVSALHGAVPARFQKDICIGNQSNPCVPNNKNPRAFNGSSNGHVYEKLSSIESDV
Format: cell-based
How it was run: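 Compounds were added to dye-loaded cells for 5 min with fluorescence monitored for agonism, followed by co-agonists (glutamate ~EC80, glycine 10 μM saturating) for 5 min. Cells stably expressed inducible human NR1/NR2B, and the buffer was pH 7.4. The FLIPR Ca2+ flux signal was normalized against control wells.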
Work on Cc1cc(-c2cnc3ccn(CC(=O)N4CCC(O)CC4)c3c2)ccc1F [Example 188, 2-[6-(4-Fluoro-3-methyl-phenyl)pyrrolo[3,2-b]pyridin-1-yl]-1-(4-hydroxy-1-piperidyl)ethanone trifluoroacetate salt] yielded an IC50 of 0.0501 µM.
COC1CCN(C(=O)Cn2ccc3ncc(-c4ccc(F)c(C)c4)cc32)CC1 [Example 190, 2-[6-(4-Fluoro-3-methyl-phenyl)pyrrolo[3,2-b]pyridin-1-yl]-1-(4-methoxy-1-piperidyl)ethanone trifluoroacetate salt] showed an IC50 of 0.251 µM.
Cc1cc(-c2cnc3ccn(CC(=O)N4CCC(F)CC4)c3c2)ccc1F [Example 191, 2-[6-(4-Fluoro-3-methyl-phenyl)pyrrolo[3,2-b]pyridin-1-yl]-1-(4-fluoro-1-piperidyl)ethanone trifluoroacetate salt] was tested, and the IC50 was 0.316 µM.
Cc1cc(-c2cnc3ccn(CC(=O)N4CCC(CF)CC4)c3c2)ccc1F [Example 192, 2-[6-(4-Fluoro-3-methyl-phenyl)pyrrolo[3,2-b]pyridin-1-yl]-1-[4-(fluoromethyl)-1-piperidyl]ethanone trifluoroacetate salt] was tested, and the IC50 was 0.0794 µM.
With Cc1cc(-c2cnc3ccn(CC(=O)N4CCOC(C)(C)C4)c3c2)ccc1F [Example 197, 1-(2,2-Dimethylmorpholin-4-yl)-2-[6-(4-fluoro-3-methyl-phenyl)pyrrolo[3,2-b]pyridin-1-yl]ethanone trifluoroacetate salt] the IC50 was 1.58 µM.
Cc1cc(-c2cnc3ccn(CC(=O)N4CCCC4(C)C)c3c2)ccc1F [Example 200, 1-(2,2-Dimethylpyrrolidin-1-yl)-2-[6-(4-fluoro-3-methyl-phenyl)pyrrolo[3,2-b]pyridin-1-yl]ethanone trifluoroacetate salt] was tested, and the IC50 was 0.251 µM.
Compound Cc1cc(-c2cnc3ccn(CC(=O)N4CC[C@@H](F)C4)c3c2)ccc1F [Example 201, 2-[6-(4-Fluoro-3-methyl-phenyl)pyrrolo[3,2-b]pyridin-1-yl]-1-[(3R)-3-fluoropyrrolidin-1-yl]ethanone trifluoroacetate salt] has an IC50 of 3.98 µM.
Compound CC1(O)CN(C(=O)Cn2ccc3ncc(-c4ccc(F)cc4)cc32)C1 [Example 202, 2-[6-(4-Fluorophenyl)pyrrolo[3,2-b]pyridin-1-yl]-1-(3-hydroxy-3-methyl-azetidin-1-yl)ethanone] has an IC50 of 0.126 µM.
O=C(Cn1ccc2ncc(-c3ccc(F)cc3)cc21)N1CC(O)(C(F)(F)F)C1 [Example 203, 2-[6-(4-Fluorophenyl)pyrrolo[3,2-b]pyridin-1-yl]-1-[3-hydroxy-3-(trifluoromethyl)azetidin-1-yl]ethanone] showed an IC50 of 0.398 µM.
Compound O=C(Cn1ccc2ncc(-c3ccc(F)cc3)cc21)N1CC(F)C1 [Example 204, 1-(3-Fluoroazetidin-1-yl)-2-[6-(4-fluorophenyl)pyrrolo[3,2-b]pyridin-1-yl]ethanone] has an IC50 of 1.58 µM.
CN(C(=O)Cn1ccc2ncc(-c3ccc(F)cc3)cc21)C1CC1 [Example 205, N-Cyclopropyl-2-[6-(4-fluorophenyl)pyrrolo[3,2-b]pyridin-1-yl]-N-methyl-acetamide] was tested, and the IC50 was 0.0501 µM.
With O=C(Cn1ccc2ncc(-c3ccc(F)cc3)cc21)N1CC(CO)C1 [Example 206, 2-[6-(4-Fluorophenyl)pyrrolo[3,2-b]pyridin-1-yl]-1-[3-(hydroxymethyl)azetidin-1-yl]ethanone] the IC50 was 0.316 µM.
COC1CN(C(=O)Cn2ccc3ncc(-c4ccc(F)cc4)cc32)C1 [Example 207, 2-[6-(4-Fluorophenyl)pyrrolo[3,2-b]pyridin-1-yl]-1-(3-methoxyazetidin-1-yl)ethanone] gave an IC50 of 0.316 µM.
In the case of Cc1cc(-c2cnc3ccn(CC(=O)N4CC5(CC5)C4)c3c2)ccc1F [Example 208, 1-(5-Azaspiro[2.3]hexan-5-yl)-2-[6-(4-fluoro-3-methyl-phenyl)pyrrolo[3,2-b]pyridin-1-yl]ethanone trifluoroacetate salt], the IC50 is reported as 0.316 µM.
For Cc1cc(-c2cnc3ccn(CC(=O)N4CCC(C)(O)CC4)c3c2)ccc1F [Example 209, 2-[6-(4-Fluoro-3-methyl-phenyl)pyrrolo[3,2-b]pyridin-1-yl]-1-(4-hydroxy-4-methyl-1-piperidyl)ethanone trifluoroacetate salt], the IC50 was 0.2 µM.
O=C(Cn1ccc2ncc(-c3ccc(F)cc3)cc21)N1CC(O)C1 [Example 211, 2-[6-(4-Fluorophenyl)pyrrolo[3,2-b]pyridin-1-yl]-1-(3-hydroxyazetidine-1-yl)ethanone] showed an IC50 of 0.398 µM.
Compound N#CC1CN(C(=O)Cn2ccc3ncc(-c4ccc(F)cc4)cc32)C1 [Example 212, 1-[2-[6-(4-Fluorophenyl)pyrrolo[3,2-b]pyridin-1-yl]acetyl]azetidine-3-carbonitrile] has an IC50 of 0.316 µM.
For O=C(Cn1ccc2ncc(-c3ccc(F)cc3)cc21)N1CC(F)(F)C1 [Example 213, 1-(3,3-Difluoroazetidin-1-yl)-2-[6-(4-fluorophenyl)pyrrolo[3,2-b]pyridin-1-yl]ethanone], the IC50 was 0.631 µM.
CC1CN(C(=O)Cn2ccc3ncc(-c4ccc(F)cc4)cc32)C1 [Example 214, 2-[6-(4-Fluorophenyl)pyrrolo[3,2-b]pyridin-1-yl]-1-(3-methylazetidin-1-yl)ethanone] showed an IC50 of 0.1 µM.
CC1(C)CN(C(=O)Cn2ccc3ncc(-c4ccc(F)cc4)cc32)C1 [Example 215, 1-(3,3-Dimethylazetidin-1-yl)-2-[6-(4-fluorophenyl)pyrrolo[3,2-b]pyridin-1-yl]ethanone] was tested, and the IC50 was 0.158 µM.
Work on O=C1CCN(C(=O)Cn2ccc3ncc(-c4ccc(F)cc4)cc32)C1 [Example 216, 1-[2-[6-(4-Fluorophenyl)pyrrolo[3,2-b]pyridin-1-yl]acetyl]pyrrolidin-3-one trifluoroacetate salt] yielded an IC50 of 1.26 µM.
For O=C(Cn1ccc2ncc(-c3ccc(F)cc3)cc21)N1CCC(F)(F)C1 [Example 217, 1-(3,3-Difluoropyrrolidin-1-yl)-2-[6-(4-fluorophenyl)pyrrolo[3,2-b]pyridin-1-yl]ethanone], the IC50 was 0.316 µM.
Cc1cccc(-c2cnc3ccn(CC(=O)C4CC4)c3c2)c1 [Example 219, 1-Cyclopropyl-2-[6-(m-tolyl)pyrrolo[3,2-b]pyridin-1-yl]ethanone] gave an IC50 of 0.501 µM.
With O=C(Cn1ccc2ncc(-c3ccccc3)cc21)C1CC1 [Example 220, 1-Cyclopropyl-2-(6-phenylpyrrolo[3,2-b]pyridin-1-yl)ethanone] the IC50 was 0.0501 µM.
Compound O=C(Cn1ccc2ncc(-c3cccc(F)c3)cc21)C1CC1 [Example 221, 1-Cyclopropyl-2-[6-(3-fluorophenyl)pyrrolo[3,2-b]pyridin-1-yl]ethanone] has an IC50 of 0.0794 µM.
In the case of O=C(Cn1ccc2ncc(-c3ccc(F)cc3)cc21)C1CC1 [Example 222, 1-Cyclopropyl-2-[6-(4-fluorophenyl)pyrrolo[3,2-b]pyridin-1-yl]ethanone], the IC50 is reported as 0.0794 µM.
Work on Cc1c(F)ccc(-c2cnc3ccn(CC(=O)C(C)C)c3c2)c1C [Example 223, 1-[6-(4-Fluoro-2,3-dimethyl-phenyl)pyrrolo[3,2-b]pyridin-1-yl]-3-methyl-butan-2-one] yielded an IC50 of 0.0794 µM.
With CCc1cccc(-c2cnc3ccn(CC(=O)C(C)C)c3c2)c1 [Example 224, 1-[6-(3-Ethylphenyl)pyrrolo[3,2-b]pyridin-1-yl]-3-methyl-butan-2-one] the IC50 was 0.398 µM.
Cc1cccc(-c2cnc3ccn(CC(=O)C(C)C)c3c2)c1C [Example 225, 1-[6-(2,3-Dimethylphenyl)pyrrolo[3,2-b]pyridin-1-yl]-3-methyl-butan-2-one] was tested, and the IC50 was 0.0794 µM.
O=C(Cn1ccc2ncc(-c3ccc(F)cc3)cc21)c1ccccc1 [Example 226, 2-[6-(4-Fluorophenyl)pyrrolo[3,2-b]pyridin-1-yl]-1-phenyl-ethanone] was tested, and the IC50 was 0.2 µM.
With O=C(Cn1ccc2ncc(-c3ccc(F)cc3)cc21)c1ccc(F)cc1 [Example 227, 1-(4-Fluorophenyl)-2-[6-(4-fluorophenyl)pyrrolo[3,2-b]pyridin-1-yl]ethanone] the IC50 was 0.794 µM.
Work on CC(C)NC(=O)Cn1ccc2ncc(-c3ccc(F)cc3)cc21 [Example 229, 2-[6-(4-Fluorophenyl)pyrrolo[3,2-b]pyridin-1-yl]-N-isopropyl-acetamide] yielded an IC50 of 0.501 µM.
Compound CCCNC(=O)Cn1ccc2ncc(-c3ccc(F)cc3)cc21 [Example 230, 2-[6-(4-Fluorophenyl)pyrrolo[3,2-b]pyridin-1-yl]-N-propyl-acetamide] has an IC50 of 5.01 µM.
CC1(NC(=O)Cn2ccc3ncc(-c4ccc(F)cc4)cc32)CC1 [Example 232, 2-[6-(4-Fluorophenyl)pyrrolo[3,2-b]pyridin-1-yl]-N-(1-methylcyclopropyl)acetamide] gave an IC50 of 10 µM.
Compound O=C(Cn1ccc2ncc(-c3ccc(F)cc3)cc21)NCCF [Example 233, N-(2-Fluoroethyl)-2-[6-(4-fluorophenyl)pyrrolo[3,2-b]pyridin-1-yl]acetamide] has an IC50 of 15.8 µM.
In the case of CC(C)CNC(=O)Cn1ccc2ncc(-c3ccc(F)cc3)cc21 [Example 234, 2-[6-(4-Fluorophenyl)pyrrolo[3,2-b]pyridin-1-yl]-N-isobutyl-acetamide], the IC50 is reported as 2.51 µM.
For Cc1cc(-c2cnc3ccn(Cc4cnn(C)c4)c3c2)ccc1F [Example 236, 6-(4-Fluoro-3-methyl-phenyl)-1-[(1-methylpyrazol-4-yl)methyl]pyrrolo[3,2-b]pyridine], the IC50 was 0.2 µM.
O=C(Cn1ccc2ncc(-c3ccc(F)cc3)cc21)NCC1CC1 [Example 237, N-(Cyclopropylmethyl)-2-[6-(4-fluorophenyl)pyrrolo[3,2-b]pyridin-1-yl]acetamide] gave an IC50 of 2 µM.
Cc1cc(-c2cnc3ccn(Cc4cn(C)nn4)c3c2)ccc1F [Example 238, 6-(4-Fluoro-3-methyl-phenyl)-1-[(1-methyltriazol-4-yl)methyl]pyrrolo[3,2-b]pyridine] showed an IC50 of 3.16 µM.
With Cc1noc(Cn2cc(Cl)c3ncc(-c4ccc(F)c(C)c4)cc32)n1 [Example 239, 5-[[3-Chloro-6-(4-fluoro-3-methyl-phenyl)pyrrolo[3,2-b]pyridin-1-yl]methyl]-3-methyl-1,2,4-oxadiazole] the IC50 was 0.158 µM.
